From ChEMBL document CHEMBL4190384, “Design, synthesis and biological evaluation of substituted (+)-SG-1 derivatives as novel anti-HIV agents” (Bioorg Med Chem Lett, 2018)

Each molecule was assayed on Human immunodeficiency virus 1 (assay: (§1) Resistance index, ratio of IC50 for antiviral activity against HIV1 virions containing reverse transcriptase Y181C mutant derived from HIV/[…] or HIV/HA virions infected 293T cells using human A549 cells as target cells to IC50 for antiviral activity against wild type HIV1 virions derived from HIV/[…] or HIV/HA virions infected 293T cells using human A549 cells as target cells). Conditions: not given.
Assay type: functional

Row | Compound | Ratio IC50
1 | COc1cc2c(cc1OC)[C@H](c1cc(OC)c(OC)c(OC)c1)[C@@H](C)CC2 | >111
2 | COc1ccc([C@H]2c3cc(OC)c(OC)cc3C[C@H](C)[C@@H]2C)cc1OC | >11.6
3 | COc1cc([C@H]2c3c(cc(OC)c(OC)c3OC)C[C@H](C)[C@@H]2C)cc(OC)c1OC | >14.5
4 | COc1cc2c(cc1OC)[C@@H](c1cc(OC)c(OC)c(OC)c1)[C@H](C)CC2 | >9.8
5 | COc1cc2c(cc1OC)[C@H](c1cc(OC)c(OC)c(OC)c1)[C@@H](C)[C@@H](C)C2 | 67.5
6 | COc1cc2c(cc1OC)N(c1cc(OC)c(OC)c(OC)c1)C(C)CC2 (racemic) | >10.6
7 | Cc1ccnc2c1NC(=O)c1cccnc1N2C1CC1 [NEVIRAPINE] | 220

These molecules were tested on Human immunodeficiency virus 1 (assay: Antiviral activity against human HIV1 by VSV-G/HIV1 infection assay). Conditions: not given.
Assay type: functional, organism-based

Row | Compound | IC50 [µM]
8 | COc1ccc([C@H]2c3cc(OC)c(OC)cc3C[C@H](C)[C@@H]2C)cc1OC | 1.07

Each molecule was assayed on Human immunodeficiency virus 1 (assay: (§2) Antiviral activity against HIV1 virions containing reverse transcriptase E138K/M184V mutant derived from HIV/[…] or HIV/HA virions infected 293T cells using human A549 cells as target cells assessed as inhibition of viral replication using compound pre-mixed virions followed by incubation with target cells for 24 hrs by luciferase reporter gene assay based defective HIV1 pseudoviral assay). Conditions: Human immunodeficiency virus 1, 24 h.
Assay type: functional, organism-based

Row | Compound | IC50 [µM]
9 | COc1cc2c(cc1OC)[C@H](c1cc(OC)c(OC)c(OC)c1)[C@@H](C)CC2 | 0.18
10 | COc1ccc([C@H]2c3cc(OC)c(OC)cc3C[C@H](C)[C@@H]2C)cc1OC | 4.02
11 | COc1cc([C@H]2c3c(cc(OC)c(OC)c3OC)C[C@H](C)[C@@H]2C)cc(OC)c1OC | 5.91
12 | COc1cc2c(cc1OC)[C@@H](c1cc(OC)c(OC)c(OC)c1)[C@H](C)CC2 | 7.13
13 | COc1cc2c(cc1OC)[C@H](c1cc(OC)c(OC)c(OC)c1)[C@@H](C)[C@@H](C)C2 | 1.38
14 | COc1cc2c(cc1OC)N(c1cc(OC)c(OC)c(OC)c1)C(C)CC2 (racemic) | 8.53
15 | Nc1ccn([C@@H]2CS[C@H](CO)O2)c(=O)n1 [LAMIVUDINE] | > 10
16 | Cc1ccnc2c1NC(=O)c1cccnc1N2C1CC1 [NEVIRAPINE] | 0.022

What follows are molecules tested on Human immunodeficiency virus 1 (assay: as §1, with “K103N” for “Y181C”). Conditions: not given.
Assay type: functional

Row | Compound | Ratio IC50
17 | COc1cc2c(cc1OC)[C@H](c1cc(OC)c(OC)c(OC)c1)[C@@H](C)CC2 | 1.7
18 | COc1ccc([C@H]2c3cc(OC)c(OC)cc3C[C@H](C)[C@@H]2C)cc1OC | 1.6
19 | COc1cc([C@H]2c3c(cc(OC)c(OC)c3OC)C[C@H](C)[C@@H]2C)cc(OC)c1OC | 1.1
20 | COc1cc2c(cc1OC)[C@@H](c1cc(OC)c(OC)c(OC)c1)[C@H](C)CC2 | 1.7
21 | COc1cc2c(cc1OC)[C@H](c1cc(OC)c(OC)c(OC)c1)[C@@H](C)[C@@H](C)C2 | 1.1
22 | COc1cc2c(cc1OC)N(c1cc(OC)c(OC)c(OC)c1)C(C)CC2 (racemic) | 1.5
23 | Cc1ccnc2c1NC(=O)c1cccnc1N2C1CC1 [NEVIRAPINE] | 70

What follows are molecules tested on Human immunodeficiency virus 1 (assay: as §1, with “E138K/M184V” for “Y181C”). Conditions: not given.
Assay type: functional

Row | Compound | Ratio IC50
24 | COc1cc2c(cc1OC)[C@H](c1cc(OC)c(OC)c(OC)c1)[C@@H](C)CC2 | 2
25 | COc1ccc([C@H]2c3cc(OC)c(OC)cc3C[C@H](C)[C@@H]2C)cc1OC | 4.7
26 | COc1cc([C@H]2c3c(cc(OC)c(OC)c3OC)C[C@H](C)[C@@H]2C)cc(OC)c1OC | 8.6
27 | COc1cc2c(cc1OC)[C@@H](c1cc(OC)c(OC)c(OC)c1)[C@H](C)CC2 | 7
28 | COc1cc2c(cc1OC)[C@H](c1cc(OC)c(OC)c(OC)c1)[C@@H](C)[C@@H](C)C2 | 8.6
29 | COc1cc2c(cc1OC)N(c1cc(OC)c(OC)c(OC)c1)C(C)CC2 (racemic) | 9.1
30 | Nc1ccn([C@@H]2CS[C@H](CO)O2)c(=O)n1 [LAMIVUDINE] | >19.6
31 | Cc1ccnc2c1NC(=O)c1cccnc1N2C1CC1 [NEVIRAPINE] | 1.7

What follows are molecules tested on Human immunodeficiency virus 1 (assay: as §2, with “virions” for “virions containing reverse transcriptase E138K/M184V mutant”). Conditions: Human immunodeficiency virus 1, 24 h.
Assay type: functional, organism-based

Row | Compound | IC50 [µM]
32 | COc1cc2c(cc1OC)[C@H](c1cc(OC)c(OC)c(OC)c1)[C@@H](C)CC2 | 0.09
33 | COc1cc2c(cc1OC)N(c1cc(OC)c(OC)c(OC)c1)CCC2 | 4.96
34 | COc1ccc([C@H]2c3cc(OC)c(OC)cc3C[C@H](C)[C@@H]2C)cc1OC | 0.86
35 | COc1ccc([C@H]2c3cc(OC)c(OC)cc3C[C@@H]2C)cc1OC | 4.42
36 | COc1ccc([C@@H]2c3cc(OC)c(OC)cc3C[C@H](C)[C@H]2C)cc1OC | > 10
37 | COc1cc2c(cc1OC)[C@H](c1cc(OC)c(OC)c(OC)c1)[C@@H](C)C2 | 0.34
38 | COc1cc(CCC(=O)N2C(=O)OC[C@@H]2Cc2ccccc2)cc(OC)c1OC | > 10
39 | COc1cc2c(cc1OC)[C@@H](c1ccc3c(c1)OCO3)[C@H](C)[C@@H](C)C2 | > 10
40 | COc1cc([C@H]2c3c(cc(OC)c(OC)c3OC)C[C@H](C)[C@@H]2C)cc(OC)c1OC | 0.69
41 | CO/N=C(\c1ccc(OC)c(OC)c1)c1cc(OC)c(OC)c(OC)c1 | > 10
42 | COc1cc2c(cc1OC)[C@@H](c1cc(OC)c(OC)c(OC)c1)[C@H](C)CC2 | 1.02
43 | COc1cc2c(cc1OC)[C@@H](c1cc(OC)c(OC)c(OC)c1)[C@H](C)[C@@H](C)C2 | > 10
44 | COc1cc2c(cc1OC)[C@H](c1cc(OC)c(OC)c(OC)c1)[C@@H](C)[C@@H](C)C2 | 0.16
45 | COc1cc2c(cc1OC)N(c1cc(OC)c(OC)c(OC)c1)C(=O)CC2 | > 10
46 | COc1ccc(/C(=N/O)c2cc(OC)c(OC)c(OC)c2)cc1OC | > 10
47 | COc1ccc(C(=O)c2cc(OC)c(OC)c(OC)c2)cc1OC | > 10
48 | CCC1CCc2cc(OC)c(OC)cc2N1c1cc(OC)c(OC)c(OC)c1 (racemic) | 0.72
49 | CCCC1CCc2cc(OC)c(OC)cc2N1c1cc(OC)c(OC)c(OC)c1 (racemic) | 1.28
50 | COc1cc2c(cc1OC)N(c1cc(OC)c(OC)c(OC)c1)C(C)CC2 (racemic) | 0.94
51 | COc1cc2c(cc1OC)C(c1cc(OC)c(OC)c(OC)c1)CCC2 (racemic) | 6.71
52 | Nc1ccn([C@@H]2CS[C@H](CO)O2)c(=O)n1 [LAMIVUDINE] | 0.51
53 | Cc1ccnc2c1NC(=O)c1cccnc1N2C1CC1 [NEVIRAPINE] | 0.013

What follows are molecules tested on A549 (assay: Cytotoxicity against human A549 cells at 10 uM after 48 hrs by CellTiter 96 AQueous one solution cell proliferation assay). Conditions: a549, 48 h.
Assay type: cell-based

Row | Compound | Activity
54 | COc1cc2c(cc1OC)[C@H](c1cc(OC)c(OC)c(OC)c1)[C@@H](C)CC2 | Non-Toxic
55 | COc1cc2c(cc1OC)N(c1cc(OC)c(OC)c(OC)c1)CCC2 | Non-Toxic
56 | COc1ccc([C@H]2c3cc(OC)c(OC)cc3C[C@H](C)[C@@H]2C)cc1OC | Non-Toxic
57 | COc1ccc([C@H]2c3cc(OC)c(OC)cc3C[C@@H]2C)cc1OC | Non-Toxic
58 | COc1ccc([C@@H]2c3cc(OC)c(OC)cc3C[C@H](C)[C@H]2C)cc1OC | Non-Toxic
59 | COc1cc2c(cc1OC)[C@H](c1cc(OC)c(OC)c(OC)c1)[C@@H](C)C2 | Non-Toxic
60 | COc1cc(CCC(=O)N2C(=O)OC[C@@H]2Cc2ccccc2)cc(OC)c1OC | Non-Toxic
61 | COc1cc2c(cc1OC)[C@@H](c1ccc3c(c1)OCO3)[C@H](C)[C@@H](C)C2 | Non-Toxic
62 | COc1cc([C@H]2c3c(cc(OC)c(OC)c3OC)C[C@H](C)[C@@H]2C)cc(OC)c1OC | Non-Toxic
63 | CO/N=C(\c1ccc(OC)c(OC)c1)c1cc(OC)c(OC)c(OC)c1 | Non-Toxic
64 | COc1cc2c(cc1OC)[C@@H](c1cc(OC)c(OC)c(OC)c1)[C@H](C)CC2 | Non-Toxic
65 | COc1cc2c(cc1OC)[C@@H](c1cc(OC)c(OC)c(OC)c1)[C@H](C)[C@@H](C)C2 | Non-Toxic
66 | COc1cc2c(cc1OC)[C@H](c1cc(OC)c(OC)c(OC)c1)[C@@H](C)[C@@H](C)C2 | Non-Toxic
67 | COc1cc2c(cc1OC)N(c1cc(OC)c(OC)c(OC)c1)C(=O)CC2 | Non-Toxic
68 | COc1ccc(/C(=N/O)c2cc(OC)c(OC)c(OC)c2)cc1OC | Non-Toxic
69 | COc1ccc(C(=O)c2cc(OC)c(OC)c(OC)c2)cc1OC | Non-Toxic
70 | CCC1CCc2cc(OC)c(OC)cc2N1c1cc(OC)c(OC)c(OC)c1 (racemic) | Non-Toxic
71 | CCCC1CCc2cc(OC)c(OC)cc2N1c1cc(OC)c(OC)c(OC)c1 (racemic) | Non-Toxic
72 | COc1cc2c(cc1OC)N(c1cc(OC)c(OC)c(OC)c1)C(C)CC2 (racemic) | Non-Toxic
73 | COc1cc2c(cc1OC)C(c1cc(OC)c(OC)c(OC)c1)CCC2 (racemic) | Non-Toxic

These molecules were tested on Human immunodeficiency virus 1 (assay: as §2, with “Y181C” for “E138K/M184V”). Conditions: Human immunodeficiency virus 1, 24 h.
Assay type: functional, organism-based

Row | Compound | IC50 [µM]
74 | COc1cc2c(cc1OC)[C@H](c1cc(OC)c(OC)c(OC)c1)[C@@H](C)CC2 | > 10
75 | COc1ccc([C@H]2c3cc(OC)c(OC)cc3C[C@H](C)[C@@H]2C)cc1OC | > 10
76 | COc1cc([C@H]2c3c(cc(OC)c(OC)c3OC)C[C@H](C)[C@@H]2C)cc(OC)c1OC | > 10
77 | COc1cc2c(cc1OC)[C@@H](c1cc(OC)c(OC)c(OC)c1)[C@H](C)CC2 | > 10
78 | COc1cc2c(cc1OC)[C@H](c1cc(OC)c(OC)c(OC)c1)[C@@H](C)[C@@H](C)C2 | 10.8
79 | COc1cc2c(cc1OC)N(c1cc(OC)c(OC)c(OC)c1)C(C)CC2 (racemic) | > 10
80 | Cc1ccnc2c1NC(=O)c1cccnc1N2C1CC1 [NEVIRAPINE] | 2.86

The molecules below were run on Human immunodeficiency virus 1 (assay: as §2, with “K103N” for “E138K/M184V”). Conditions: Human immunodeficiency virus 1, 24 h.
Assay type: functional, organism-based

Row | Compound | IC50 [µM]
81 | COc1cc2c(cc1OC)[C@H](c1cc(OC)c(OC)c(OC)c1)[C@@H](C)CC2 | 0.15
82 | COc1ccc([C@H]2c3cc(OC)c(OC)cc3C[C@H](C)[C@@H]2C)cc1OC | 1.38
83 | COc1cc([C@H]2c3c(cc(OC)c(OC)c3OC)C[C@H](C)[C@@H]2C)cc(OC)c1OC | 0.76
84 | COc1cc2c(cc1OC)[C@@H](c1cc(OC)c(OC)c(OC)c1)[C@H](C)CC2 | 1.73
85 | COc1cc2c(cc1OC)[C@H](c1cc(OC)c(OC)c(OC)c1)[C@@H](C)[C@@H](C)C2 | 0.18
86 | COc1cc2c(cc1OC)N(c1cc(OC)c(OC)c(OC)c1)C(C)CC2 (racemic) | 1.4
87 | Cc1ccnc2c1NC(=O)c1cccnc1N2C1CC1 [NEVIRAPINE] | 0.91
